Results on one compound are retold here after US11306063B2, “Heterocyclic naphthoquinones derivatives for use in the treatment of cancers including Cushing disease” (Commissariat a l'Energie Atomique et aux Energies …, priority 2016, dated 2022).

Common to all, as to type: cell-based, human
In assay [1] the test system is EGFR, P-EGFR, Met, P-Akt in HCC827 cells. The experiment in a line: Protein expression by immunoblot, HCC827. To be noted: 6 hours; dose dependent; FIG. 10. The method, then:
Tubulin (Tub) serve as loading controls. One representative experiment out of two is presented.
(§1) Cells were treated by either DMSO (0.5%) or increasing doses of the selected molecules from 1 μM to 10 μM over 6 to 24 hours as indicated. […] Tubulin was detected using anti α-tubulin primary antibody (in-house: the polyclonal Glu-tubulin antibody (L4) is available commercially from Abcys (Paris, France)). HRP-coupled anti-rabbit (#A6154) and anti-mouse (#A4416) secondary antibodies were purchased from Sigma. HRP activity was detected through HRP chemoluminescence detection reagent (Millipore, #WBLUF0100). […] Positive control was Epotoside at 50 μM or 100 μM, a known drug inducing cancerous cell death by apoptosis.
A general note: Immunoblotting shows a protein as a band on a membrane.

Assay [2] deals with LNCaP cells spheroids. The experiment in a line: Cell migration out of 3D spheroids. To be noted: 2 μM and 5 μM; 1 to 7 days; FIG. 3. The method, then:
In vitro migration out of the spheroid was performed using a 96-well tissue culture plate (Cell Culture Microplate, 96 wells, Flat-BOTTOM, CellStar #655090). 100 μL (72 h hours old+24 h drug treatment spheroids) were placed in corresponding well of the new flat microplate, and daily observed in bright field with a Zeiss Axio Observer microscope. Each condition was made in six replicates. The migration area was measured with the tools of the AxioObserver software.
To this end, 3-days old spheroids are placed in a new flat-well microplate and daily observed in bright field.

Assay [3] concerns p53 in HCT116 cells. The experiment in a line: Protein expression by immunoblot, HCT116. Particulars: dose dependent; FIG. 7B. Here is the method: Actin or Tubulin (Tub) serve as loading controls. One representative experiment out of three is presented.
Cells were treated by either DMSO (0.5%) or increasing doses of the selected molecules from 1 μM to 10 μM over 6 to 24 hours as indicated. Cell lysates were analyzed by immunoblotting following standard procedure using primary antibodies from Cell Signaling: anti-total P53 (#9282), anti-phosphoP53 Kit (#9919), anti-cyclinD1 (#2926), anti-FAS (#3189), anti EGFR (#4267), anti-Phospho (tyr1068) EGFR (#2234), anti Met (#4560), anti-Akt (#9272), anti Phospho(Ser473)-Akt (#9271) or anti-Myc (Santa Cruz Technology #Sc-40). Tubulin was detected using anti α-tubulin primary antibody (in-house: the polyclonal Glu-tubulin antibody (L4) is available commercially from Abcys (Paris, France)). HRP-coupled anti-rabbit (#A6154) and anti-mouse (#A4416) secondary antibodies were purchased from Sigma. HRP activity was detected through HRP chemoluminescence detection reagent (Millipore, #WBLUF0100). Apoptotic cell death induction was observed through the observation of PARP cleavage using anti-PARP primary antibodies anti-PARP (46D11) (#9532). Positive control was Epotoside at 50 μM or 100 μM, a known drug inducing cancerous cell death by apoptosis.

In assay [4] the test system is EGFR and Met in HEK293T cells. The experiment in a line: Protein expression by immunoblot, HEK293T (Flag-USP8-S680A). Particulars: FIG. 11. Here is the method:
One representative experiment out of two is presented.
as §1

Turning to `CCCCS(=O)(=O)Cc1nc2c(nc1CS(=O)(=O)CCCC)C(=O)c1ccccc1C2=O` [PCR6236], in assay [1], the “Akt phosphorylation, HCC827” value is given as “prevents Akt phosphorylation”; the “EGFR degradation, HCC827” value was “EGFR and Met degradation”; the “EGFR phosphorylation, HCC827” value was “induces EGFR phosphorylation”; the “Met degradation, HCC827” value is “EGFR and Met degradation”. For the same compound, the “prevention of cell migration out of the spheroids” value in assay [2] is “strong capacity”. Besides, the “p53 expression, HCT-116” value in assay [3] is on record as “restored high levels of p53 expression”. Also, in assay [4] (6 h), the “EGFR levels induced by USP8-S680A, HEK293T” value is given as “markedly reduced EGFR levels”. Also, in assay [4] (6 hours, dose-dependent), the “Met degradation, HEK293T” value is listed as “induced Met degradation”.
